According to US20260272933A1, “USE OF HETEROCYCLIC COMPOUND IN TREATMENT OF INTERSTITIAL PNEUMONIA” (SUZHOU KINTOR PHARMACEUTICALS, INC., priority 2023, published 2026):
Entries after “also recorded” stand apart in the source; their conditions may differ.

What was measured:
α-SMA = experiment: Western blot: degradation of TGF-β-induced α-SMA protein in A549 cells; assay type: cell-based, Human; conditions: 24-hour treatment, FIG. 43
Procedure: (§1) Human lung carcinoma cells (A549 cell line) were purchased from Shanghai Cell Bank of Chinese Academy of Sciences.
(§2) The cells were cultured in RPMI (Roswell Park Memorial Institute)-1640 medium supplemented with 10% FBS (Fetal Bovine Serum) and 1% penicillin-streptomycin. The cell culture conditions were 5% CO2 and […] Upon reaching approximately 80% confluence, the cells were subcultured at a 1:3 ratio.
(§3) A549 cells in the exponential growth phase were digested and plated into 6-well plates at 1×10^6 cells per well. After one day of growth, TGF-β (transforming growth factor-β) and different concentrations of compound B-1-1 were added to culture the cells. Protein was extracted 24 hours after drug treatment.
(§4) After removing the culture medium from the 6-well plates, the cells were washed once with PBS (phosphate-buffered saline) and then trypsinized. The cells were collected in 1.5 mL microcentrifuge tubes by centrifugation. […]
(§5) The protein concentration was determined using a BCA Protein Assay Kit. […] After thoroughly mixing, the plate was incubated at 60° C. for 10 min, and the absorbance was measured at 562 nm. Record the readings and plot a standard curve based on the standard concentration gradient. The protein concentration of the samples was calculated by substituting the sample absorbance values into the standard curve. […]

GLi1 = experiment: Western blot: degradation of TGF-β-induced GLi1 protein in A549 cells; assay type: cell-based, Human; conditions: 24-hour treatment, FIG. 43
Procedure: as §1, §2, §3, §4, §5

[1] = system: Bleomycin-induced unilateral pulmonary fibrosis model in SD rats; experiment: Bleomycin-induced unilateral pulmonary fibrosis model, HE staining injury and inflammation score of terminal bronchioles and small pulmonary arteries; assay type: in vivo; conditions: for Injury Score of Terminal Bronchioles and Accompanying Small Pulmonary Arteries, At Margin Lesion / Injury Score of Terminal Bronchioles and Accompanying Small Pulmonary Arteries, Within Lesion: p.o., 28 days from Day 8, Mean ± SEM, p < 0.001 vs. Model group; for Injury Score of Terminal Bronchioles and Accompanying Small Pulmonary Arteries, At Margin Lesion: model group 5.44 ± 0.12; for Injury Score of Terminal Bronchioles and Accompanying Small Pulmonary Arteries, Within Lesion: model group 9.44 ± 0.22
Source text: (§6) 55 SD rats were purchased from Zhejiang Charles River Laboratory Animal Technology Co., Ltd. and housed in the SPF-grade barrier system of KCl Biotechnology (Suzhou) Co., Ltd. The animal use certification number was SYXK (Su) 2017-0041, the temperature, humidity and light control system follows international standards.
(§7) Anesthesia: 1-2.5% isoflurane was used for respiratory anesthesia to maintain deep anesthesia of the animals.
(§8) After the rats were under surgical anesthesia, the experimental model was constructed according to the guidelines for establishing the unilateral pulmonary fibrosis model in KCl. The skin was shaved, locally disinfected, and then a layered incision was made to expose and preserve the trachea. Bleomycin (dose: 3 mg/kg) was administered via intratracheal instillation to induce left lung fibrosis. After confirming no bleeding, the incision was closed layer-by-layer using 2-0 silk surgical sutures. After the surgery, the animals were placed on a 37° C. electric heating pad until fully recovered. Normal feeding and drinking were confirmed before returning the animals to standard housing. Starting from the day of modeling, meloxicam (1 mg/kg) was administered subcutaneously once daily for three consecutive days for postoperative analgesia.
(§9) Prior to modeling, animals were randomly divided into five groups based on body weight, as follows: Sham model group (normal group) (n=10), model group (n=10), Nintedanib 100 mg/kg, qd group (n=10), Compound B-1-1 20 mg/kg, bid group (n=10), Compound B-1-1 40 mg/kg, bid group (n=10). The administration began on the 8th day after modeling. • Nintedanib: administered orally, once daily for 28 consecutive days; • Compound B-1-1: administered orally, twice daily for 28 consecutive days.
(§10) After euthanasia, animals were perfused systemically with pre-cooled PBS at 4° C. The lungs were collected, and the left lung lobes were perfused with formalin. Histopathological examinations were performed using HE staining and Masson Trichrome staining. HE staining was used to evaluate the extent of bronchial and small pulmonary artery injury and inflammation, while Masson Trichrome staining assessed the degree of pulmonary fibrosis.
(§11) The entire left lung was dehydrated and embedded in paraffin. Paraffin sections of the entire left lung were prepared at a thickness of 3 μm. HE-stained sections were used for pathological analysis and scoring of injury and inflammatory changes in terminal bronchioles and accompanying small pulmonary arteries within and surrounding the lesion (Tables 4-2 and 4-3). Masson Trichrome staining was performed on the left lung paraffin sections, and the stained sections were scanned using the Nano Zoomer Digital Pathology scanner (S210) to obtain whole-slide images. Ten areas of 1 mm^2 each were randomly selected within the lesion area, and semi-quantitative scoring was conducted under a double-blind condition according to the Ashcroft scoring system (Table 4-4).
(§12) Statistical analysis was performed using Prism 6.0 software. Data are expressed as mean±SEM (standard error). One-way ANOVA was used for the analysis, and Tukey's method was selected for the comparison of differences between groups; when comparing between two groups, a T-test was used for two-tailed detection; when p<0.05, there was a significant difference between the two groups. In cases where outliers were suspected due to large within-group variability, the Identify Outliers function in GraphPad Prism 6.0 was used to detect and exclude outlier values. For data analysis purposes, all relevant data from any animal excluded from the efficacy evaluation were also omitted from statistical analysis.

GLi2 = experiment: Western blot: degradation of TGF-β-induced GLi2 protein in A549 cells; assay type: cell-based, Human; conditions: 24-hour treatment, FIG. 43
Procedure: as §1, §2, §3, §4, §5

[2] = Body weight and clinical observations during the rat pulmonary fibrosis study; assay type: in vivo, SD rats; conditions: Group 5, 40 mg/kg, after administration, FIGS. 44 and 45
Source text: as §6
as §8, with “analgesia. […]” for “analgesia.”

[3] = system: Bleomycin-induced unilateral pulmonary fibrosis model in SD rats; experiment: Bleomycin-induced unilateral pulmonary fibrosis model, Masson Trichrome staining, Ashcroft fibrosis score of left lung; assay type: in vivo; conditions: for Fibrosis Score (Ashcroft), left lung: p.o., 28 days from Day 8, model group 3.79 ± 0.08, p < 0.001 vs. Model group
Source text: as §6, §7, §8, §9, §10, §11, §12

[4] = both doses, 20 mg/kg and 40 mg/kg, twice daily from Day 8, p<0.001
[5] = 100 mg/kg, once daily from Day 8, p<0.001

| SMILES | degradation of TGF-β-induced α-SMA protein (Western blot) (α-SMA) | degradation of TGF-β-induced GLi1 protein (Western blot) (GLi1) | Injury Score of Terminal Bronchioles and Accompanying Small Pulmonary Arteries, At Margin Lesion ([1]; 20 mg/kg, b.i.d.) | Injury Score of Terminal Bronchioles and Accompanying Small Pulmonary Arteries, Within Lesion ([1]; 20 mg/kg, b.i.d.) | Injury Score of Terminal Bronchioles and Accompanying Small Pulmonary Arteries, At Margin Lesion ([1]; 40 mg/kg, b.i.d.) | Injury Score of Terminal Bronchioles and Accompanying Small Pulmonary Arteries, Within Lesion ([1]; 40 mg/kg, b.i.d.) | inflammatory infiltration and pathological injury in terminal bronchioles and small pulmonary arteries within and at the margins of fibrotic lesions, compared to model group (in words) [1, 4] | degradation of TGF-β-induced GLi2 protein (Western blot) (GLi2) | body weight gain compared with the model group [2] | Fibrosis Score (Ashcroft), left lung ([3]; 20 mg/kg, b.i.d.) | effect in inhibiting the progression of pulmonary fibrosis lesions compared with positive drug nintedanib ([3]; 40 mg/kg, BID, versus nintedanib 100 mg/kg, QD) | Fibrosis Score (Ashcroft), left lung ([3]; 40 mg/kg, b.i.d.) | pulmonary fibrosis scores / progression compared to the model group (in words) [3, 4] | inflammatory cell infiltration and injury in terminal bronchioles and small pulmonary arteries within and surrounding fibrotic lesions, compared to model group (in words) [1, 5] | Injury Score of Terminal Bronchioles and Accompanying Small Pulmonary Arteries, At Margin Lesion ([1]; 100 mg/kg, q.d.) | Injury Score of Terminal Bronchioles and Accompanying Small Pulmonary Arteries, Within Lesion ([1]; 100 mg/kg, q.d.) | pulmonary fibrosis compared to the model group (in words) [3, 5] | Fibrosis Score (Ashcroft), left lung ([3]; 100 mg/kg, q.d.) |
| --- | --- | --- | --- | --- | --- | --- | --- | --- | --- | --- | --- | --- | --- | --- | --- | --- | --- | --- |
| Cc1cnc(-c2cc(N3CCc4nc(N5CCC(O)CC5)ncc4[C@H]3C)ncc2Cl)c(C)c1 [Compound B-1-1] | effectively degraded | effectively degraded | 3.50 ± 0.43 | 6.96 ± 0.46 | 3.14 ± 0.35 | 6.20 ± 0.47 | significantly decreased; also recorded: significantly improved | effectively degraded | slower rate of weight gain | 2.93 ± 0.20 | same excellent effect | 2.62 ± 0.18 | significantly reduced; also recorded: significantly inhibit | – | – | – | – | – |
| COC(=O)c1ccc2c(c1)NC(=O)/C2=C(\Nc1ccc(N(C)C(=O)CN2CCN(C)CC2)cc1)c1ccccc1 [Nintedanib, nintedanib, reference compound] | – | – | – | – | – | – | – | – | – | – | – | – | – | significantly reduced; also recorded: amelioration | 2.72 ± 0.17 | 6.24 ± 0.21 | significantly ameliorated; also recorded: significantly improved | 2.57 ± 0.09 |
